Literature values in US7279184B2, “Methods and compositions comprising Ilex” (HerbalScience, LLC, priority 2003, dated 2007).

- half-life after ingestion: approximately 6 hours
Compound: Cn1cnc2c1c(=O)[nH]c(=O)n2C [Theobromine, 3,7-dimethyl-xanthine]
